# According to patent EP1789452B1, “RELAXIN-CHIMERIC POLYPEPTIDES AND THEIR PREPARATION AND USE” (Janssen Pharmaceutica NV, priority 2004, dated 2006):
# What was measured:
# [1] = molecular target: T1, LGR7 (Homo sapiens, UniProt Q9HBX9); experiment: Stimulation of β-galactosidase expression in SK-N-MC/β-gal cells; format: cell-based
# T1 construct: Human LGR7 cDNA containing the complete coding region was PCR amplified from a human brain cDNA pool; expressed in transfected cells; host or cells: COS-7 (transient, live cells)
# T1 sequence (Q9HBX9 1-757): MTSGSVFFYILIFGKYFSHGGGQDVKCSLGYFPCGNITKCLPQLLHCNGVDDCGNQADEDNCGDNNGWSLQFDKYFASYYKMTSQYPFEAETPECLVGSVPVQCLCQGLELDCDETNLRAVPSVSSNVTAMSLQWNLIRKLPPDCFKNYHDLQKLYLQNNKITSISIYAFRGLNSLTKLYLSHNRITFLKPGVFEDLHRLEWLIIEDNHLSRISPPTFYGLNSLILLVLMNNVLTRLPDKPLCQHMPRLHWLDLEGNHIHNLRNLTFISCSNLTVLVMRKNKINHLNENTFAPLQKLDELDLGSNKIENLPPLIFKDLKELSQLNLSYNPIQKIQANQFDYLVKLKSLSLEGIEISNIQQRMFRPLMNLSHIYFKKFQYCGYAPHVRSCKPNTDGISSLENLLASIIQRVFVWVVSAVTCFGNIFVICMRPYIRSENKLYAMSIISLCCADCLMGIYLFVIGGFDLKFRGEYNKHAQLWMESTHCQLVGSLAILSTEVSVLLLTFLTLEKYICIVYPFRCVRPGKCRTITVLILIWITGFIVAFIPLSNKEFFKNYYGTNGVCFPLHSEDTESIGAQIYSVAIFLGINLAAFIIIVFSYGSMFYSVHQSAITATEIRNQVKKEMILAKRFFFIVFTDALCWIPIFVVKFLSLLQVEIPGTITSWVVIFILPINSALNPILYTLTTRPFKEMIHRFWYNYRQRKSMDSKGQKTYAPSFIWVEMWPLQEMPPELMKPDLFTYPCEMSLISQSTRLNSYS
# [2] = molecular target: T2, LGR8 (Homo sapiens, UniProt Q8WXD0); experiment: as above; format: cell-based; conditions: highest concentration tested 1 µM
# T2 construct: Human LGR8 cDNA containing the complete coding region was PCR amplified from a human testis cDNA pool; expressed in transfected cells
# T2 sequence (Q8WXD0 whole entry): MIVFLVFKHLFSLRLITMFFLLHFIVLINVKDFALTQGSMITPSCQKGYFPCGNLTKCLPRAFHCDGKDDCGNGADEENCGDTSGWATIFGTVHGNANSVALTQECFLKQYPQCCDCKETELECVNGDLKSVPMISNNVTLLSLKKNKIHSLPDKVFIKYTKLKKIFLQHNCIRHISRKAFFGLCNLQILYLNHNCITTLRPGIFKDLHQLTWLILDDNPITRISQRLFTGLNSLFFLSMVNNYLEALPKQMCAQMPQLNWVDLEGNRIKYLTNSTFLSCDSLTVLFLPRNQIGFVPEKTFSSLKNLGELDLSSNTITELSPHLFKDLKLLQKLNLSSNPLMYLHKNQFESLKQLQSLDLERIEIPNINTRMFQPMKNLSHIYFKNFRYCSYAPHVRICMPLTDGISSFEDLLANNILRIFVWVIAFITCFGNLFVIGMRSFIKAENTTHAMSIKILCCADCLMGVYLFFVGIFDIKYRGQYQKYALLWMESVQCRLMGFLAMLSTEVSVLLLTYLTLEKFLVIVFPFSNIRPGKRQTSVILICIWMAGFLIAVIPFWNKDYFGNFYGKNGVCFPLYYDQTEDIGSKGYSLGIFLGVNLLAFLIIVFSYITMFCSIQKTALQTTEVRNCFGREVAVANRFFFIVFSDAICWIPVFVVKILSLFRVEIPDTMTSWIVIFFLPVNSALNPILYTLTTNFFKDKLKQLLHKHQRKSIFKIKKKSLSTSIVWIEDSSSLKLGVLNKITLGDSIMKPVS
structure (smiles),measurement,setting,value
CC[C@H](C)[C@H](NC(=O)[C@H](Cc1ccccc1)NC(=O)[C@H](CCC(=O)O)NC(=O)[C@H](CCCNC(=N)N)NC(=O)CNC(=O)[C@H](CS)NC(=O)[C@H](CC(C)C)NC(=O)[C@H](CCCNC(=N)N)NC(=O)[C@@H](NC(=O)CNC(=O)[C@H](Cc1ccc(O)cc1)NC(=O)[C@@H]1CCCN1C(=O)[C@H](C)NC(=O)[C@H](C)NC(=O)[C@@H](N)CCCNC(=N)N)C(C)C)C(=O)N[C@@H](CCCNC(=N)N)C(=O)N[C@@H](C)C(=O)N[C@H](C(=O)N[C@H](C(=O)N[C@@H](Cc1ccccc1)C(=O)N[C@H](C(=O)N[C@@H](CS)C(=O)NCC(=O)NCC(=O)N[C@@H](CO)C(=O)N[C@@H](CCCNC(=N)N)C(=O)N[C@@H](Cc1c[nH]c2ccccc12)C(=O)O)[C@@H](C)O)[C@@H](C)CC)C(C)C [relaxin-3 B-chain],activation of LGR7 expressing cells,[1],did not activate
same,activity towards LGR8,[2],did not activate
